Test results published in the Deep4Chem optical property database.
Several values for one entry are separate records, joined by “and”; a condition that tells them apart may be missing. Equal values may be shown once.

Assay: solvent given as SMILES

Cc1cc(C)c([B-]2(c3c(C)cc(C)cc3C)[O+]=P(c3ccccc3)(c3ccccc3)c3cc(C#Cc4ccccc4)sc3-c3sc(C#Cc4ccccc4)cc32)c(C)c1
emission maximum (in C1CCOC1): 498 nm

COc1ccc(C2=C(c3ccc(OC)cc3)C(C)(C)c3cc(OC)ccc32)cc1
emission maximum (in C1CCCCC1): 398 nm

COc1ccc2c(c1)C(=O)c1cc(OC)cc(OC)c1-2
emission maximum (in C1CCCCC1): 570 nm | emission maximum (in CC#N): 628 nm

CCC1(CC)c2cc(-c3ccc(N(c4ccc(-c5ccc6c(c5)C(CC)(CC)c5cc(N7c8ccccc8C(C)(C)c8ccccc87)ccc5-6)cc4)c4ccc(-c5ccc6c(c5)C(CC)(CC)c5cc(N7c8ccccc8C(C)(C)c8ccccc87)ccc5-6)cc4)cc3)ccc2-c2ccc(N3c4ccccc4C(C)(C)c4ccccc43)cc21
emission maximum (in ClC(Cl)Cl): 431 nm

COc1cc2c3cc(OC)c(OC)cc3c3cc4c(C)cc(=O)oc4cc3c2cc1OC
emission maximum (in C1CCOC1): 489 nm | emission maximum (in CO): 556 nm | emission maximum (in CS(C)=O): 519 nm | emission maximum (in Cc1ccccc1): 463 nm | emission maximum (in ClC(Cl)Cl): 491 nm

CC1=[N+]2C(=Cc3c4c(cn3[B-]2(F)F)-c2nc-4c(-c3ccccc3)c3ccc([nH]3)c(-c3ccccc3)c3nc(c(-c4ccccc4)c4ccc([nH]4)c2-c2ccccc2)C=C3)C(C)C1 (configuration not stated)
emission maximum (in ClCCl): 693 nm

Cc1ccc(-c2cc(/C=C/c3ccc(N(c4ccccc4)c4ccccc4)cc3)c(C#N)c(N3CCCCC3)c2)cc1
emission maximum (in CS(C)=O): 523 nm

c1ccc([B-]2(c3ccccc3)Oc3ccc4ccccc4c3-c3c4ccccc4cn[n+]32)cc1
emission maximum (in Cc1ccccc1): 555 nm

COc1ccc(C2=C(C)C3=C(c4c(-c5ccccn5)nc5ccccn45)c4c(C)cc(C)n4[B-](F)(F)[N+]3=C2C)cc1
emission maximum (in ClCCl): 592 nm

C=CCOc1nnc(OCCC(F)(F)C(F)(F)C(F)(F)C(F)(F)C(F)(F)C(F)(F)F)nn1
emission maximum (in ClCCl): 573 nm | emission maximum (in OCC(F)(F)F): 562 nm

O=C1c2ccccc2-c2c(-c3cc(Cl)ccc3O)[nH]c(=O)n21
emission maximum (in CC#N): 475 nm | emission maximum (in CO): 493 nm | emission maximum (in ClCCl): 475 nm

O=C(c1ccccc1)c1cc2ccc1CCc1ccc(c(-c3ccc(N(c4ccccc4)c4ccccc4)cc3)c1)CC2
emission maximum (in Cc1ccccc1): 455 nm | emission maximum (in c1cc(-n2c3ccccc3c3ccccc32)cc(-n2c3ccccc3c3ccccc32)c1): 468.87 nm

c1ccc(-n2c3c(c4c2-c2ccccc2C42c4ccccc4-c4ccccc42)C2(c4ccccc4-c4ccccc42)c2ccccc2-3)cc1
emission maximum (in C1CCOC1): 408 nm

Cc1ccsc1-c1cc2c3cc(-c4sccc4C)c4nc(C(F)(F)C(F)(F)C(F)(F)F)nc5c(-c6sccc6C)cc(c6cc(-c7sccc7C)c7nc(C(F)(F)C(F)(F)C(F)(F)F)nc1c7c26)c3c45
emission maximum (in C1CCOC1): 627 nm

N#Cc1cccc2[nH]ccc12
emission maximum (in C1CCOC1): 371 nm | emission maximum (in C1COCCO1): 369 nm | emission maximum (in CC#N): 380 nm | emission maximum (in CC(C)O): 385 nm | emission maximum (in CCO): 387 nm | emission maximum (in CO): 390 nm | emission maximum (in CS(C)=O): 392 nm | emission maximum (in O): 405 nm | emission maximum (in OCC(F)(F)F): 394 nm

COc1cc2oc(=O)c3c4ccc(N(C)C)cc4c4ccc5cccc6c(c1)c2c3c4c56
emission maximum (in C1CCOC1): 577 nm

c1ccc(N(c2ccccc2)c2ccc(-c3ccc(-c4ccc(-c5cccs5)c5nsnc45)s3)cc2)cc1
emission maximum (in ClC(Cl)Cl): 670 nm

CCC1(CC)c2cc(B(c3c(C)cc(C)cc3C)c3c(C)cc(C)cc3C)ccc2-c2c1c1c(c3c2C(CC)(CC)c2cc(N(c4ccccc4)c4ccccc4)ccc2-3)C(CC)(CC)c2cc(B(c3c(C)cc(C)cc3C)c3c(C)cc(C)cc3C)ccc2-1
emission maximum (in C1CCOC1): 500 nm | emission maximum (in CC#N): 582 nm | emission maximum (in CC(C)=O): 550 nm | emission maximum (in CCCCCC): 421 nm | emission maximum (in CCCO): 501 nm | emission maximum (in CCO): 512 nm | emission maximum (in Cc1ccccc1): 444 nm | emission maximum (in ClC(Cl)Cl): 473 nm

CN(C)c1ccc(C2=Cc3c4ccccc4c4ccccc4[n+]3[B-](F)(F)O2)cc1
emission maximum (in C1CCOC1): 539 nm | emission maximum (in C1COCCO1): 518 nm | emission maximum (in CC1CCCCC1): 485 nm | emission maximum (in CC#N): 569 nm | emission maximum (in CCOC(C)=O): 536 nm | emission maximum (in CCOCC): 513 nm | emission maximum (in CN(C)C=O): 571 nm | emission maximum (in CO): 559 nm | emission maximum (in COC(C)=O): 559 nm | emission maximum (in ClC(Cl)Cl): 521 nm

O=c1cccc2n1C[C@@H]1CNC[C@H]2C1
emission maximum (in CC#N): 380 nm

Cc1cc(C)c(C2=C3C=CC=[N+]3[B-]3(c4ccc5ccc6cccc7ccc4c5c67)Oc4cc(O)cc5c6ccc(C)cc6c6cc2n3c6c45)c(C)c1 (configuration not stated)
emission maximum (in ClC(Cl)Cl): 670 nm

Cc1ccc(S(=O)(=O)Nc2cc(-c3ccc(N(C)C)cc3)sc2/C=C/c2ccccc2)cc1
emission maximum (in CC#N): 604 nm

O=[N+]([O-])c1ccc(C#Cc2ccc3ccc(C#Cc4ccc([N+](=O)[O-])cc4)cc3c2)cc1
emission maximum (in ClCCl): 527 nm

c1ccc([B-]2(c3ccccc3)Oc3ccc4ccccc4c3-c3c4ccccc4cc[n+]32)cc1
emission maximum (in Cc1ccccc1): 522 nm

CCOC(=O)c1c2c3c(cccc3c3cc4ccccc4cc13)N(C)C2=O
emission maximum (in CC#N): 413 nm

NC(=O)Cc1cccc2ccccc12
emission maximum (in C1COCCO1): 326 nm | emission maximum (in CC#N): 325 nm | emission maximum (in CCO): 325 nm | emission maximum (in ClC(Cl)Cl): 325 nm | emission maximum (in O): 324 nm | emission maximum (in OCCO): 325 nm | emission maximum (in [2H]O[2H]): 324 nm

O=c1c2cc(Br)ccc2nc2n1[B-](F)(F)[n+]1ccccc1-2
emission maximum (in CC#N): 440 nm | emission maximum (in ClCCl): 448 nm

NS(=O)(=O)c1ccc(N2N=C(c3ccc(O)cc3)CC2c2ccc(F)cc2)cc1 (configuration not stated)
emission maximum (in C1CCOC1): 417 nm | emission maximum (in C1COCCO1): 417 nm | emission maximum (in CC#N): 417 nm | emission maximum (in CC(C)O): 423 nm | emission maximum (in CCO): 427 nm | emission maximum (in CCOC(C)=O): 416 nm | emission maximum (in CN(C)C=O): 421 nm | emission maximum (in CO): 430 nm | emission maximum (in CS(C)=O): 424 nm | emission maximum (in O): 448 nm

N#Cc1ccc(-n2c(-c3ccc(-c4ccc(-n5c6ccccc6c6ccccc65)cc4)s3)nc3c4ccccc4c4ccccc4c32)c2ccccc12
emission maximum (in ClCCl): 400 nm

COc1ccc(-c2nc3ccccc3oc2=O)cc1
emission maximum (in c1ccccc1): 444 nm

O=C1NC(c2ccccc2)=N/C1=C\c1ccccc1
emission maximum (in C1COCCO1): 444 nm

CC1=[N+]2C(=C(c3ccccc3)c3c4ccccc4c(C)n3[B-]2(F)F)c2ccccc21
emission maximum (in CC#N): 606 nm

CCC1(CC)c2cc(/C=C/c3cc(C#N)c(/C=C/c4ccc5c(c4)C(CC)(CC)c4cc(N6c7ccccc7Sc7ccccc76)ccc4-5)cc3C#N)ccc2-c2ccc(N3c4ccccc4Sc4ccccc43)cc21
emission maximum (in C1CCOC1): 514 nm | emission maximum (in CC#N): 610 nm | emission maximum (in CCCCCC): 518 nm | emission maximum (in Cc1ccccc1): 547 nm | emission maximum (in ClCCl): 520 nm

Cc1ccc2nc(/C=C/c3ccc(N(C)C)cc3)c(-c3ccccc3)nc2c1
emission maximum (in C1COCCO1): 528 nm | emission maximum (in CC#N): 614 nm | emission maximum (in ClCCl): 571 nm

c1ccc(C2c3ccccc3-c3ccccc32)cc1
emission maximum (in CCO): 305 nm

COc1ccc(-c2cc3c(ccc4sc5ccc6sccc6c5c43)s2)cc1
emission maximum (in ClCCl): 409 nm

COc1ccc(-n2c(C)ccc2C)cc1
emission maximum (in CC#N): 421 nm | emission maximum (in CCCCCC): 336 nm

CCCCOc1c(Br)cc2cc(Br)c(OCCCC)c3c4c(OCCCC)c(Br)cc5cc(Br)c(OCCCC)c(c1c23)c54
emission maximum (in ClCCl): 489 nm

CCOC(=O)c1ccc(NC(=O)COc2cc3c4c([nH]c3c(C)c2C)C(=O)CCC4)cc1
emission maximum (in C1COCCO1): 408.59 nm | emission maximum (in CC#N): 422.39 nm | emission maximum (in CCO): 464.31 nm | emission maximum (in CS(C)=O): 426.09 nm | emission maximum (in O): 468.86 nm | emission maximum (in c1ccccc1): 411.45 nm

COc1cc2c(cc1/C=C/C(=C(C#N)C#N)c1ccccc1)c1ccccc1n2C
emission maximum (in C1CCOC1): 568 nm | emission maximum (in CC#N): 589 nm | emission maximum (in CCO): 575 nm | emission maximum (in CCOC(C)=O): 549 nm and 548 nm | emission maximum (in CN(C)C=O): 573 nm | emission maximum (in CO): 575 nm | emission maximum (in CS(C)=O): 581 nm | emission maximum (in Cc1ccccc1): 566 nm | emission maximum (in ClC(Cl)Cl): 554 nm | emission maximum (in ClCCl): 560 nm

CC1(C)C(/C=C/C=C/c2cc3ccc(O)cc3oc2=O)=[N+](CCCS(=O)(=O)[O-])c2ccccc21
emission maximum (in CS(C)=O): 653 nm | emission maximum (in O): 720 nm

CCN(CC)c1ccc2cc(-c3cn4ccccc4n3)c(=O)oc2c1
emission maximum (in C1CCOC1): 474 nm | emission maximum (in CC#N): 475 nm | emission maximum (in CCO): 482 nm | emission maximum (in CCOC(C)=O): 468 nm | emission maximum (in CN(C)C=O): 477 nm | emission maximum (in CO): 485 nm | emission maximum (in CS(C)=O): 482 nm | emission maximum (in Cc1ccccc1): 469 nm | emission maximum (in ClC(Cl)Cl): 471 nm | emission maximum (in ClCCl): 478 nm

Cc1ccc(Nc2ccc(Nc3ccc(C)cc3)c3c2C(=O)c2ccccc2C3=O)cc1
emission maximum (in C1CCCCC1): 680 nm | emission maximum (in C1COCCO1): 684 nm | emission maximum (in CC(C)=O): 684 nm | emission maximum (in CCCCCCCCCCO): 682 nm | emission maximum (in CCCCCCCO): 684 nm | emission maximum (in CCCCCCO): 682 nm | emission maximum (in CCCCO): 683 nm | emission maximum (in CCO): 684 nm | emission maximum (in CN(C)C=O): 686 nm | emission maximum (in CO): 682 nm | emission maximum (in CS(C)=O): 689 nm | emission maximum (in ClC(Cl)(Cl)Cl): 685 nm | emission maximum (in c1ccccc1): 684 nm

O=c1c2ccccc2[nH]c2ccccc12
emission maximum (in CS(C)=O): 408 nm | emission maximum (in O): 416 nm

O=C1c2ccccc2-c2ccc(N3CCOCC3)c3cccc1c23
emission maximum (in C1CCOC1): 600 nm | emission maximum (in CCCCCC): 529 nm | emission maximum (in CCO): 640 nm | emission maximum (in CCOC(C)=O): 600 nm | emission maximum (in CN(C)C=O): 622 nm | emission maximum (in CO): 661 nm | emission maximum (in Cc1ccccc1): 568 nm | emission maximum (in ClC(Cl)(Cl)Cl): 552 nm | emission maximum (in ClC(Cl)Cl): 625 nm | emission maximum (in ClCCl): 625 nm | emission maximum (in c1ccccc1): 562 nm

C1=CC2=Nc3cccc[n+]3CN2C=C1
emission maximum (in CO): 448 nm

C[P+]1(c2ccccc2)C2=C(c3ccccc31)S(=O)(=O)c1ccccc12 (configuration not stated)
emission maximum (in CC#N): 479 nm | emission maximum (in CCO): 419 nm | emission maximum (in ClCCl): 483 nm
